Measured values as given in patent US20230028880A1, “CD38-BINDING AGENTS AND USES THEREOF” (Biohaven Therapeutics Ltd., priority 2019, published 2023).
“Also recorded” adds a separate entry of the source.

Key:
[1] = test system: NK cells (CIML and non-CIML); assay: CIML NK cell fratricide assay; type: cell-based
Procedure: PBMC isolation: Leukopheresis product from a donor with body mass index (BMI) between 19-25, under 50 years old, not on immuno-suppressive drugs for at least 2 weeks with an estimated PBMC cell count of >10^10 was obtained from Key Biologics (subject ID 20982200) and transported at ambient temperature. Leukopheresis bag was wiped down with 70% EtOH, a small slit was made and contents were pipetted off into tubes. Leukopak contents were diluted 1:1 with PBS without Ca++/Mg++ and 20 ml of this mixture was layered on top of 25 mL of Ficoll. Tubes were then centrifuged at 400 g for 30 minutes without brakes. PBMCs were harvested from the interface into separate tubes, and tubes were filled to 50 mL with PBS. Cells were centrifuged for 10 min at 120 g to get rid of platelets. Supernatant was poured off and cells were re-suspended in RPMI 10% FBS at a concentration of 7-10×10^6 cells/ml. Cells were cultured overnight at 37 C in a 5% CO2 atmosphere until NK cell isolation.
NK cell isolation: PBMC were centrifuged at 400 g for 10 min and re-suspended in EasySep buffer. NK cells were isolated using NK cell isolation kits from […] Technologies according to kit's manufacturers' instructions. NK cell purity and phenotype was assessed by trypan Blue and flow cytometry using the following antibody cocktail: anti-CD56PE, CD3 APC, and viability was determined using staining with Trypan Blue exclusion dye, and by flow cytometry using Near Infra-Red Fixable viability dye (Thermo Fisher).
CIML NK cell generation: Isolated NK cells were re-suspended at 2×10^6 cells/ml in XVIVO 10% Human Serum and the following concentrations IL-15 (50 ng/ml), IL-12 (10 ng/ml), IL-18 (50 ng/ml) for 12 to 18 hrs. Cells were harvested and tested for purity and viability by Trypan Blue staining and by Flow Cytometry using Near Infra-Red Fixable viability dye (Thermo Fisher), CD3 APC (Biolegend) and CD56 PE (Biolegend).
The stock was then serially diluted in 100% DMSO to achieve 1000× concentrations to be used in the experiment. The 100% DMSO compound stock was then added to a tube and media was added to a volume of 1000 ul per 1 ul of compound and vortexed for 1 minute to ensure a homogenous mixture.
Similarly, NK cell pellets were re-suspended in Daratumumab control antibody solutions (a range of 3 ug/ml to 0.01 ug/ml in PBS 5% HSA). Resulting NK cell suspensions were aliquoted at 55 ul/well of a 96 wellv-bottom plate and were incubated for 2 hrs at 37° C. in a 5% CO2 atmosphere.

SUDHL-4 cells = assay: CIML NK cell SUDHL-4 cell ADCC assay; type: cell-based
Procedure: CIML NK cell SUDHL-4 cell ADCC assay: SUDHL-4 cells were labelled with CFSE and re-suspended in XVIVO15 media containing 20% Human serum. Cells were aliquoted at 10,000 cells/well, 18 ul/well of 96 well V-bottom plates. NK cells (in PBS 5% HSA) were added at a 9:1 ratio (90,000 NK cell per well) in an equal volume (18 ul per well). Co-cultures were incubated overnight at 37° C. in a 5% CO2 atmosphere. Next day, cells were washed, and stained with the following reagents: Near Infra-Red Fixable viability dye (Thermo Fisher), CD3 FITC (Biolegend) and CD56 PE (Biolegend). Percentages of Dead SUDHL-4 cells were calculated by gating on CFSE+ cells that are also positive for Near Infrared Live Dead dye.
Baseline activity was assessed by using NK cells that have not been stimulated with cytokine cocktail (non-CIML NK cells). FIG. 6 represents frequencies of dead SUDHL-4 cells in NK-SUDHL-4 cell co-cultures after 18 hours of incubation.

[2] = test system: multiple myeloma patient bone marrow plasma cells (CD38+ CD138+); assay: Patient bone marrow with autologous CIML NK cells: reduction of plasma cells; type: cell-based, human; conditions: 4 hr, IVIG 10 ug/ml (FIG. 7)
Procedure: Patient bone marrow (3 ml) and blood (20 ml) were shipped at ambient temperature from Discovery Biosciences. Bone marrow was diluted 1:1 with PBS, and […] of bone marrow-PBS mixture was aliquoted into 96 deep well plates. Bone marrow cells were incubated overnight until CIML cells were added next day.
PBMC were isolated from blood by Ficoll density gradient centrifugation. PBMC were centrifuged at 400 g for 10 min and re-suspended in EasySep buffer. NK cells were isolated using NK cell isolation kits from […] Technologies according to kit's manufacturers' instructions.
NK cells were re-suspended at 1×10^6 cells/ml in XVIVO15, 10% Human Serum, IL-15 (50 ng/ml), IL-12 (10 ng/ml), IL-18 (50 ng/ml), and incubated for 18 hrs. Following overnight incubation with cytokines, NK cells were washed twice with PBS 5% Human Serum Albumin, counted and re-suspended at a cell density of 2×10^5 cells/ml of XVIVO15 media. Twenty microliters (4000 cells) were added per each well containing 50 µl of bone marrow: PBS mixture. […] Control wells received XVIVO15 media. Well contents were mixed by pipetting up and down and plates were centrifuged at 400 g for 1 min.
The assay was then incubated for 4 hrs at 37° C. 5% CO2. […] Finally, cells were re-suspended in 200 µl of FACS Buffer and analyzed using Attune Flow Cytometer. Data were analyzed using FlowJo software and graphed using GraphPad Prism.

Structure (SMILES): CCCCC[C@@H]1NC(=O)[C@H](CCCNC(=N)N)NC(=O)[C@H](C)NC(=O)CSC[C@@H](C(=O)NCCOCCOCCOCCOCCOCCOCCn2nnc3c2CCC2C(CC3)C2COC(=O)N2CCC(C(=O)NCC(=O)N[C@H](CCC(=O)N[C@H](CCC(=O)N[C@H](CCC(=O)O)C(=O)N[C@H](CCC(=O)N[C@H](CCC(=O)NCC(=O)NCC(=O)N[C@@H](CC(=O)O)C(=O)N[C@H]3CSSC[C@@H](C(=O)N[C@H](C(=O)O)[C@@H](C)O)NC(=O)[C@H](Cc4c[nH]c5ccccc45)NC(=O)[C@H](C(C)C)NC(=O)[C@H](CC(C)C)NC(=O)[C@H](CCC(=O)O)NC(=O)CNC(=O)[C@H](CC(C)C)NC(=O)[C@H](Cc4c[nH]cn4)NC(=O)[C@H](Cc4c[nH]c5ccccc45)NC(=O)[C@H](C)NC3=O)C(=O)O)C(=O)O)C(=O)O)C(=O)O)CC2)NC(=O)[C@H](CC(=O)O)NC(=O)[C@H](CCCCC)NC(=O)[C@H](Cc2ccc(-c3ccccc3)cc2)NC(=O)[C@H](CC(C)C)NC(=O)[C@H](C(C)C)NC(=O)CNC(=O)[C@H](CC(=O)O)NC(=O)[C@H](Cc2c[nH]cn2)NC(=O)[C@H](Cc2ccc(O)cc2)NC1=O (stereo partly shown) [I-17]
- NK cell fratricide / toxicity ([1]; 2 hr incubation, up to the highest doses (FIG. 5)): no apparent NK cell fratricide was detected; also recorded: low toxicity
- increase in the percentage of dead NK cells ([1]; CIML NK cells, 2 hours post-incubation, daratumumab 3 ug/ml or 20.1 nM, I-17 +/-IVIG): no increase
- increase in dead NK cells (I-17 IvIG vs DMSO IVIG control) ([1]; non-CIML NK cells, 2 h, I-17 25 uM with IVIG 500 ug/ml): 0.93%
- increase in dead NK cells over DMSO treated control ([1]; non-CIML NK cells, 2 h, I-17 at 25 uM vs DMSO control): 1.7%
- increase in killing over background (DMSO-treated control) (SUDHL-4 cells; CIML NK cells in combination with I-17, SUDHL-4 cells, 18 hours): 66%
- killing of SUDHL-4 cells in NK-SUDHL-4 co-cultures (SUDHL-4 cells; FIG. 6): can effectively kill cancer cells
- reduction in the frequencies of CD38+ CD138+ cells in patient bone marrow [2]: effectively reduced frequency of plasma cells; also recorded: can reduce the number of plasma cells
